Read-outs that look alike come from different tables or passages of the source.
Tests used:
[1] = test system: TYPE II Collagen-Induced Arthritis in DBA/1J Mouse; assay: Type II collagen-induced arthritis in DBA/1J mouse; type: in vivo; details: 840 h
Procedure: Bovine Type II collagen (purchased from collagen technical workshop) (100-200 μg) was mixed with complete Freund's adjuvant (manufactured by Sigma-Aldrich Ltd.) containing killed tuberculosis H37Ra. Using the resulting emulsion, 6 to 7-week-old male DBA/1J mice (CHARLES RIVER LABORATORIES JAPAN, INC.) were subcutaneously immunized at the tail root twice at 3 week intervals, whereby arthritis was developed. A test compound was suspended or dissolved in 0.5% carboxymethylcellulose (manufactured by Sigma-Aldrich Ltd.), and repetitively administered orally at a dose of 0.1-30 mg/kg body weight using an oral gavage needle for 2 weeks from the day of booster. As to this model, the symptoms of arthritis of four limbs were evaluated based on the following judgment criteria using the scores of from 0 to 4. The arthritis score of each mouse was shown by the total of the scores of four limbs (maximum: 16 points).
As regards the arthritis score, each group (n=5-6) was evaluated using an average value and mean error, with a group administered only with a vehicle being control, and Mann-Whitney U test was used for statistical analysis, wherein p value of 0.05 or below was determined to be significant. In the following, the suppressive action of the compound of the present invention on mouse collagen induced arthritis is shown by the suppressing rate (%) (1−(average arthritis score of compound administration group)/(average arthritis score of control group)×100) calculated from the average arthritis score at 35 days after the primary immunization.

[2] = test system: Lupus Nephritis in MRL/MpJ-lpr/lpr Mouse; assay: Lupus nephritis in spontaneous systemic lupus erythematosus model MRL/MpJ-lpr/lpr mouse; type: in vivo; details: for urine protein score (mean ± SE): 4 weeks after administration, medium group 2.8 ± 0.2, P <0.05
Procedure: The compound of the present invention or a pharmaceutically acceptable salt thereof was suspended or dissolved in 0.5% carboxymethylcellulose, and repetitively administered orally to male MRL/MpJ-lpr/lpr mice at 16 weeks after birth (CHARLES RIVER LABORATORIES JAPAN, INC.), that had developed lupus nephritis, at a dose of 1 and 3 mg/kg body weight for 4 weeks using an oral gavage needle. During the dosing period, urine-protein level was scored once a week using Ames urine test paper (Albustix (registered trademark), Bayer, Ltd.•Sankyo Corp.). As regards the urine protein levels, each group (n=10) was evaluated using an average value and mean error, with a group administered only with a vehicle being control, and Dunnett's test was used for statistical analysis, wherein p value of 0.05 or below was determined to be significant.

[3] = test system: CD28-dependent T cell growth; assay: Mouse T cell proliferation stimulated with anti-CD28 antibody and PMA (tritiumthymidine uptake); type: cell-based; details: for IC50: T-cell, BALB/c mouse T cells, 10 ng/mL PMA and 250 ng/mL anti-CD28 antibody, tritiumthymidine uptake, read-out: CD28-dependent T cell growth suppressive action (IC50); for CD28-dependent T cell growth suppressive action (in words): mouse T cells stimulated with PMA and anti-CD28 antibody
Procedure: The spleen was aseptically isolated from 6-7-week-old male BALB/c mice (CHARLES RIVER LABORATORIES JAPAN, INC.), and splenocyte suspension was prepared using RPMI1640 medium (manufactured by Sigma-Aldrich Ltd.). After hemolysis by a hypotonic treatment using a mixed solution of 0.83% aqueous ammonium chloride and Tris-HCl buffer (pH 7.65) at 9:1, a T cell concentrated fraction was obtained using a T cell concentrated column (manufactured by R&D systems). A cell suspension prepared using RPMI1640 medium containing 10% fetal calf serum (FCS, manufactured by Sigma-Aldrich Ltd.) was added to a flat-bottomed 96 well microtest plate (manufactured by Becton, Dickinson and Company) at 5×10^5 cells/well. Furthermore, a test compound diluted with a medium to the final concentration of 1-10000 nmol/L, 10 ng/mL PMA (manufactured by Sigma-Aldrich Ltd.) and 250 ng/mL anti-CD28 antibody (manufactured by BD pharmingen) were added, and the mixture was cultured under the conditions of 37° C., 5% carbon dioxide, 95% air for 20 hr. After the completion of culture, tritiumthymidine (specific activity: […], manufactured by MP Biochemicals) was added at 18.5 kBq/well, and the mixture was further cultured for 4 hr. Then, the cells were recovered in a glass fiber filter using a cell harvester (manufactured by Molecular Devices Corp.), the radioactivity taken into the cells was measured using a plate scintillation counter (microbeta 1460, manufactured by PerkinElmer), based on which the mouse T cell growth induced by stimulation with PMA and anti-CD28 antibody was measured. To be specific, suppressing rate (%)=(1−(radioactivity (cpm) of well added with test compound)/(radioactivity (cpm) of well without addition of test compound))×100 was calculated from the average amount of tritiumthymidine uptake (cpm) of T cells in each well added with various concentrations of test compound. In addition, based on the dose response curve obtained by plotting the average tritiumthymidine uptake amount (cpm) or suppressing rate on the vertical axis and the concentration on the transverse axis, the concentration of the compound (IC50) suppressing the value to 50% of that of the control group was determined by nonlinear regression.

[4] = test system: Mouse Skin Allograft Survival; assay: Mouse skin allograft survival; type: in vivo; details: for median survival time of skin graft: vehicle 9.5
Procedure: A tail skin graft (4×7 mm) of 5- to 7-week-old male AKR mouse (KYUDO Co. Ltd. was) was transplanted on the back of 5- to 7-week-old male C3H mouse (CHARLES RIVER LABORATORIES JAPAN, INC.), covered with aseptic gauze and bandaged. The bandage was removed at day 6 from the transplantation, and the graft was observed every day up to rejection. The rejection of the skin graft was determined to be the time point when 90% or more of the epithelium of the graft turned brown due to necrosis. The number of days from the transplantation to the rejection was taken as the survival time of the graft. The compound of the present invention or a pharmaceutically acceptable salt thereof was suspended or dissolved in 0.5% carboxymethylcellulose, and repetitively administered orally at a dose of 0.3-100 mg/kg body weight once a day for 14 days from the day of transplantation. As for the graft survival time, generalized Wilcoxon test analysis was performed using the group administered with vehicle alone as a control, and the multiplicity was adjusted by the Holm's method, wherein p value of 0.05 or below was determined to be significant.

[5] = test system: Mouse Graft-Versus-Host Reaction (GvHR); assay: Mouse graft-versus-host reaction (GvHR); type: in vivo; details: P <0.05 vs vehicle
Procedure: Cyclophosphamide (manufactured by Shionogi & Co., Ltd.) is administered to male BDF1 recipient mouse (8-week-old, CHARLES RIVER LABORATORIES JAPAN, INC.) at a dose of 300 mg/kg from the tail vein as a pretreatment at 24 hr prior to injection of spleen cells. The spleen was aseptically isolated from male C57BL/6 donor mouse (8-week-old, CHARLES RIVER LABORATORIES JAPAN, INC.), minced in RPMI1640 medium (manufactured by Sigma-Aldrich Ltd.), and passed through a stainless mesh to give a splenocyte single cell suspension. After removal of red blood cells by a hypotonic treatment using a mixed solution of 0.83% aqueous ammonium chloride and Tris-HCl buffer (pH 7.65) at 9:1, splenocytes were washed and suspended in physiological saline to give a splenocyte suspension. The prepared cells were injected at 1×10^8 cells/mouse into the tail vein to induce acute GvHR. The compound of the present invention or a pharmaceutically acceptable salt thereof was suspended or dissolved in 0.5% carboxymethylcellulose, and repetitively administered orally at a dose of 3-30 mg/kg body weight for 28 days from the day of splenocyte injection, and the influence on the survival time was evaluated. After induction of acute GvHR, the survival of each individual was determined every day, and the day of confirmed death was taken as the survival time of each individual. As for the survival time, log-rank test analysis was performed using the group administered with vehicle alone as a control, and the multiplicity was adjusted by the Holm's method, wherein p value of 0.05 or below was determined to be significant.

[6] = test system: Biphasic Auricular Edema in Egg Albumin-Induced Mouse; assay: Egg albumin-induced mouse biphasic auricular edema; type: in vivo; details: for suppressing rate (%) of auricular edema: 24 hr later, P <0.05; for suppressive action on edema (in words): 24 hr after induction with egg albumin
Procedure: Using saline (0.5 ml) containing egg albumin (10 μg, manufactured by Sigma-Aldrich Ltd.) and 1 mg of aluminum hydroxide gel, 6 to 7-week-old male BALB/c mice (CHARLES RIVER LABORATORIES JAPAN, INC.) were intraperitoneally immunized. Two weeks later, egg albumin (1.25 μg) was intradermally injected into the auricle of the mice for challenge, whereby biphasic auricular edema was induced 1 hr and 24 hr after the challenge. The compound of the present invention or a pharmaceutically acceptable salt thereof was suspended or dissolved in 0.5% carboxymethylcellulose, and repetitively administered orally at a dose of 0.01-30 mg/kg body weight for 3 days, from 2 days before the antigen challenge to the day of challenge, using an oral gavage needle. As for this model, the thickness of the auricle of the mouse was measured using a dial gauge (manufactured by Ozaki MFG. Co. Ltd.) and used as an index of auricular edema. As regards the thickness of the auricle, each group (n=8) was evaluated using an average value and mean error, with a group administered only with a vehicle being control, and t-test was used for statistical analysis, wherein p value of 0.05 or below was determined to be significant.

[7] = test system: Experimental Autoimmune Encephalomyelitis in SJL/J Mouse; assay: Experimental autoimmune encephalomyelitis in SJL/J mouse; type: in vivo; details: 30 mg/kg oral, 3 weeks from immunization; average EAE score at 14 days after immunization; P <0.05
Procedure: The 139th-151st peptides (50 μg) of rat-derived proteolipid protein (manufactured by Bachem) was mixed with complete Freund's adjuvant containing killed tuberculosis H37Ra. Using the resulting emulsion, 10-week-old female SJL/J mice (CHARLES RIVER LABORATORIES JAPAN, INC.) were subcutaneously immunized on the back, whereby experimental autoimmune encephalomyelitis (EAE) was developed. The compound of the present invention or a pharmaceutically acceptable salt thereof was suspended or dissolved in 0.5% carboxymethylcellulose (manufactured by Sigma-Aldrich Ltd.), and repetitively administered orally at a dose of 3-30 mg/kg body weight using an oral gavage needle for 3 weeks from the day of immunization. As to this model, the symptoms of EAE were evaluated based on the following judgment criteria using the scores of from 0 to 5.
As regards the EAE score, each group (n=10) was evaluated using an average value and mean error, with a group administered only with a vehicle being control, and Mann-Whitney U test was used for statistical analysis, wherein p value of 0.05 or below was determined to be significant. In the following, the suppressive action of the compound of the present invention on EAE is shown by the suppressing rate (%) calculated from the average EAE score at 14 days after the immunization. […] From the results, the compound is considered effective for encephalomyelitis, multiple sclerosis and the like.

[8] = 3 mg/kg oral, 2 weeks from booster, average arthritis score at 35 days after primary immunization, P <0.05, read-out: suppressing rate (%) of arthritis score

| SMILES | inhibition in vivo at 3 mg/kg ([1]; po, read-out: suppressing rate (%) of arthritis score) [%] | urine protein score (mean ± SE) ([2]; 1 mg/kg oral) | urine protein score (mean ± SE) ([2]; 3 mg/kg oral) | effect on urine protein score (in words) ([2]; at not less than 1 mg/kg, oral for 4 weeks, compared to the control group) | IC50 [3] [nM] | CD28-dependent T cell growth suppressive action (in words) [3] | inhibition in vivo at 3 mg/kg [1, 8] [%] | median survival time of skin graft ([4]; 30 mg/kg oral once a day for 14 days, P 0.13) [days] | effect on graft survival time (in words) ([4]; 100 mg/kg) | median survival time of skin graft ([4]; 100 mg/kg oral once a day for 14 days, P <0.05) [days] | median survival time ([5]; 30 mg/kg oral for 28 days from splenocyte injection) [days] | suppressing rate (%) of auricular edema ([6]; 10 mg/kg oral for 3 days) [%] | suppressive action on edema (in words) ([6]; 10 mg/kg) | suppressing rate (%) of EAE score [7] [%] | median survival time ([5]; 10 mg/kg oral for 28 days from splenocyte injection) [days] | suppressing rate (%) of auricular edema ([6]; 3 mg/kg oral for 3 days) [%] | suppressive action on edema (in words) ([6]; 3 mg/kg) |
| --- | --- | --- | --- | --- | --- | --- | --- | --- | --- | --- | --- | --- | --- | --- | --- | --- | --- |
| COC(=O)C[C@@H]1N=C(c2ccc(Cl)cc2)c2c(sc(C)c2C)-n2c(C)nnc21 [Example 1, Methyl (S)-{4-(4-chlorophenyl)-2,3,9-trimethyl-6H-thieno[3,2-f][1,2,4]triazolo[4,3-a][1,4]diazepin-6-yl}acetate] | 66.1 | 1.8 ± 0.3 | 1.6 ± 0.2 | significantly decreased the urine protein score | 38 | have a CD28-dependent T cell growth suppressive action |  |  |  |  |  |  |  |  |  |  |  |
| COC(=O)C[C@@H]1N=C(c2ccc(-c3ccc(OC)cc3)cc2)c2c(sc(CO)c2C)-n2c(C)nnc21 [Example 234, Methyl (S)-{2-hydroxymethyl-4-(4′-methoxybiphenyl-4-yl)-3,9-dimethyl-6H-thieno[3,2-f][1,2,4]triazolo[4,3-a][1,4]diazepin-6-yl}acetate] |  |  |  |  | 97 | have a CD28-dependent T cell growth suppressive action | 53.6 | 11 | significantly prolonged the graft survival time | 14 | 32 | 35.8 | significant suppressive action on edema |  |  |  |  |
| CCOC(=O)C[C@@H]1N=C(c2ccc(NCc3ccc(F)cc3)cc2)c2c(sc(C)c2C)-n2c(C)nnc21 [Example 163, Ethyl (S)-(4-{4-[(4-fluorophenyl)methylamino]phenyl}-2,3,9-trimethyl-6H-thieno[3,2-f][1,2,4]triazolo[4,3-a][1,4]diazepin-6-yl)acetate] |  |  |  |  | 70 | have a CD28-dependent T cell growth suppressive action | 57.4 |  |  |  |  |  |  | 60 | 19 | 44.5 | significant suppressive action on edema |

From patent US8044042B2, “Thienotriazolodiazepine compound and medicinal use thereof” (Mitsubishi Tanabe Pharma Corporation, priority 2005, dated 2011)
